Results taken from article PMC3402541, “Guanidylation and Tail Effects in Cationic Antimicrobial Lipopeptoids” (PLoS ONE, 2012).
Converted amounts (≈) assume the structure as drawn. Where a SMILES comes first, the peptide text is derived from it. [ ]: non-standard residue; d: D form. The star is where a group is joined. Arachidoyl = CCCCCCCCCCCCCCCCCCCC(=O)*; Myristoyl = CCCCCCCCCCCCCC(=O)*; Nlys = NCCCCNCC(=O)O

Assays:
S.aureus ATCC 29213 = assay type: cell-based, Staphylococcus aureus; details: ATCC 29213, 24 h
Description: (§1) Antimicrobial activity of the purified lipopeptoids was determined without replication against a panel of clinically relevant and standard reference bacterial strains according to CLSI macrobroth standards. Stock solutions at 512 µg/mL were prepared in water, with DMSO as needed, and testing was performed in glass test tubes using Muller-Hinton broth and bacteria adjusted to 5 × 10^5 CFU/mL. Bacteria were incubated with the lipopeptoid of interest for 24 hr at 37°C prior to reading.
(§2) The bacteria Staphylococcus aureus ATCC 29213, methicillin-resistant S. aureus ATCC 33592, Staphylococcus epidermidis ATCC 14990, Enterococcus faecalis ATCC 29212, E. faecium ATCC 27270, Streptococcus pneumoniae ATCC 49619, Escherichia coli ATCC 25922, Pseudomonas aeruginosa ATCC 27853, and Klebsiella pneumoniae ATCC 13883 were acquired from the American Type Culture Collection (ATCC) and used as quality controls. The clinical strains methicillin-resistant S. epidermidis (MRSE) CAN-ICU 61589, E. coli CAN-ICU 61714, E. coli CAN-ICU 63074, P. aeruginosa CAN-ICU 62308, Stenotrophomonas maltophilia CAN-ICU 62584, Acinetobacter baumannii CAN-ICU 63169 were obtained from hospitals across Canada as part of the CAN-ICU studies, while methicillin-susceptible S. epidermidis (MSSE) 81388 was obtained from the 2008 CANWARD study.
(§3) After subculturing the relevant bacteria twice from frozen stock, in vitro activities of the antimicrobials were determined by macrobroth dilution methodology in accordance with the Clinical and Laboratory Standards Institute (CLSI) guidelines (3). The MICs were determined using glass test tubes (2 mL/tube) containing doubling antimicrobial dilutions of cation adjusted Mueller-Hinton broth inoculated to achieve a final concentration of approximately 5 x 10^5 CFU/mL, incubated in ambient air for 24 hr prior to reading. Colony counts were performed periodically to confirm inocula. The ATCC organisms […] ATCC 49619, Staphylococcus aureus ATCC 29213, Enterococcus faecalis ATCC 29212, Escherichia coli ATCC 25922, and Pseudomonas aeruginosa ATCC 27853 were used as quality control and to allow easy comparison to previously tested antimicrobials. Each test in this series was performed without replication. In our experience with cationic amphiphiles the results are accurate to within a single doubling.

MRSA ATCC 33592 = assay type: cell-based, methicillin-resistant S. aureus; details: ATCC 33592, 24 h
Description: as §1, §2, §3

MSSE 81388 CANWARD 2008 = assay type: cell-based, methicillin-susceptible S. epidermidis; details: 24 h
Description: as §1, §2, §3

MRSE CAN-ICU 61589 = assay type: cell-based, methicillin-resistant S. epidermidis; details: CAN-ICU 61589, 24 h
Description: as §1, §2, §3

E. faecalis ATCC 29212 = assay type: cell-based, Enterococcus faecalis; details: ATCC 29212, 24 h
Description: as §1, §2, §3

S.pneumoniae ATCC 49619 = assay type: cell-based, Streptococcus pneumoniae; details: ATCC 49619, 24 h
Description: as §1, §2, §3

P.aeruginosa ATCC 27853 = assay type: cell-based, Pseudomonas aeruginosa; details: ATCC 27853, 24 h
Description: as §1, §2, §3

[1] = system: P.aeruginosa CAN-ICU 62308; assay type: cell-based, Pseudomonas aeruginosa; details: CAN-ICU 62308, 24 h
Description: as §1, §2, §3

[2] = system: S. maltophilia CAN-ICU 62584; assay type: cell-based, Stenotrophomonas maltophilia; details: CAN-ICU 62584, 24 h
Description: as §1, §2, §3

[3] = system: A. baumannii CAN-ICU 63169; assay type: cell-based, Acinetobacter baumannii; details: CAN-ICU 63169, 24 h
Description: as §1, §2, §3

K.pneumoniae ATCC 13883 = assay type: cell-based, Klebsiella pneumoniae; details: ATCC 13883, 24 h
Description: as §1, §2, §3

ovine erythrocytes = experiment: Haemolytic assay; assay type: cell-based, sheep; details: ovine erythrocytes in Tris buffered saline, 30 minutes, absorbance of supernatant at 540 nm
Description: Mammalian cell toxicity was determined by measuring lysis of ovine erythrocytes, a standard model for human cell toxicity. Cells were prewashed with Tris buffered saline and then incubated with a variety of lipopeptoid concentrations for 30 minutes. Following centrifugation, lysis was evaluated by testing the absorbance of the solution at 540 nm, with 0.5% NH4OH used as a positive control.
Toxicity to mammalian cells was determined using a sheep red blood cell (erythrocyte) haemolytic assay (4). Erythrocytes were washed and resuspended in Tris buffered saline prior to use, at a concentration of 1.46 - 4.5 x 10^9 cells/mL (on average 3.08 x 10^9 cells/mL). The cell suspension was diluted with varying concentrations of antimicrobials, from 50 μg/mL to 1 mg/mL and incubated for thirty minutes (final erythrocyte concentration 4.08 x 10^8 cells/mL). The samples were centrifuged following treatment and the absorbance of the supernatant was measured at 540 nm. A solution of 0.5% […] was used as a positive control, with normal buffered solution as the negative control. The toxicity was assessed as a function of percent haemolysis.

E.coli ATCC 25922 = assay type: cell-based, Escherichia coli; details: ATCC 25922, 24 h
Description: as §1, §2, §3

E.coli CAN-ICU 61714 = assay type: cell-based, Escherichia coli; details: CAN-ICU 61714, 24 h
Description: as §1, §2, §3

E.coli CAN-ICU 63074 = assay type: cell-based, Escherichia coli; details: CAN-ICU 63074, 24 h
Description: as §1, §2, §3

E. faecium ATCC 27270 = assay type: cell-based; details: ATCC 27270, 24 h
Description: as §1, §2, §3

| SMILES | MIC S.aureus (S.aureus ATCC 29213) [µg/mL] | MIC S.aureus in the presence of 4% bovine serum albumin (S.aureus ATCC 29213) [µg/mL] | MIC MRSA (MRSA ATCC 33592) [µg/mL] | MIC MRSA in the presence of 4% bovine serum albumin (MRSA ATCC 33592) [µg/mL] | MIC MSSE (MSSE 81388 CANWARD 2008) [µg/mL] | MIC MSSE in the presence of 4% bovine serum albumin (MSSE 81388 CANWARD 2008) [µg/mL] | MIC MRSE (MRSE CAN-ICU 61589) [µg/mL] | MIC MRSE in the presence of 4% bovine serum albumin (MRSE CAN-ICU 61589) [µg/mL] | MIC E. faecalis (E. faecalis ATCC 29212) [µg/mL] | MIC E. faecalis in the presence of 4% bovine serum albumin (E. faecalis ATCC 29212) [µg/mL] | MIC S.pneumoniae (S.pneumoniae ATCC 49619) [µg/mL] | MIC S.pneumoniae in the presence of 4% bovine serum albumin (S.pneumoniae ATCC 49619) [µg/mL] | MIC P.aeruginosa (P.aeruginosa ATCC 27853) [µg/mL] | MIC P.aeruginosa in the presence of 4% bovine serum albumin (P.aeruginosa ATCC 27853) [µg/mL] | MIC P.aeruginosa [1] [µg/mL] | MIC P.aeruginosa in the presence of 4% bovine serum albumin [1] [µg/mL] | MIC S. maltophilia [2] [µg/mL] | MIC S. maltophilia in the presence of 4% bovine serum albumin [2] [µg/mL] | MIC A. baumannii [3] [µg/mL] | MIC A. baumannii in the presence of 4% bovine serum albumin [3] [µg/mL] | further results |
| --- | --- | --- | --- | --- | --- | --- | --- | --- | --- | --- | --- | --- | --- | --- | --- | --- | --- | --- | --- | --- | --- |
| CCCCCCCCCCCCCCCCCCCC(=O)N(CCCCN)CC(=O)NCC(=O)N(CCCCN)CC(N)=O [C20-NlysGNlys] (Arachidoyl-[Nlys]-Gly-[Nlys]-NH2) | 8 (≈ 12.8 µM) | 512 | 16 (≈ 25.6 µM) | 512 | 8 (≈ 12.8 µM) | 256 | 8 (≈ 12.8 µM) | 512 | 16 (≈ 25.6 µM) | 512 | 128 (≈ 205 µM) | 512 | 256 (≈ 410 µM) | >512 | 256 (≈ 410 µM) | >512 | 128 (≈ 205 µM) | >512 | 128 (≈ 205 µM) | >512 | MIC K.pneumoniae (K.pneumoniae ATCC 13883): 128 µg/mL (≈ 205 µM); MIC K.pneumoniae in the presence of 4% bovine serum albumin (K.pneumoniae ATCC 13883): >512 µg/mL; Percent haemolysis at 100µg/mL of compound (ovine erythrocytes): 33.51%; MIC E.coli (E.coli ATCC 25922): 256 µg/mL (≈ 410 µM); MIC E.coli in the presence of 4% bovine serum albumin (E.coli ATCC 25922): >512 µg/mL; MIC E.coli (E.coli CAN-ICU 61714): 256 µg/mL (≈ 410 µM); MIC E.coli in the presence of 4% bovine serum albumin (E.coli CAN-ICU 61714): >512 µg/mL; MIC E.coli (E.coli CAN-ICU 63074): 128 µg/mL (≈ 205 µM); MIC E.coli in the presence of 4% bovine serum albumin (E.coli CAN-ICU 63074): >512 µg/mL; MIC E. faecium (E. faecium ATCC 27270): 16 µg/mL (≈ 25.6 µM); MIC E. faecium in the presence of 4% bovine serum albumin (E. faecium ATCC 27270): 512 µg/mL |
| CCCCCCCCCCCCCC(=O)N(CCCCN)CC(=O)NCC(=O)N(CCCCN)CC(N)=O [C14-NlysGNlys] (Myristoyl-[Nlys]-Gly-[Nlys]-NH2) | 32 (≈ 59.2 µM) | 512 | 32 (≈ 59.2 µM) | 512 | 16 (≈ 29.6 µM) | 512 | 32 (≈ 59.2 µM) | 512 | 64 (≈ 118 µM) | >512 | 256 (≈ 473 µM) | >512 | 256 (≈ 473 µM) | >512 | 512 (≈ 947 µM) | >512 | 512 (≈ 947 µM) | >512 | 256 (≈ 473 µM) | >512 | MIC K.pneumoniae (K.pneumoniae ATCC 13883): 256 µg/mL (≈ 473 µM); MIC K.pneumoniae in the presence of 4% bovine serum albumin (K.pneumoniae ATCC 13883): >512 µg/mL; Percent haemolysis at 100µg/mL of compound (ovine erythrocytes): 2.90%; MIC E.coli (E.coli ATCC 25922): 128 µg/mL (≈ 237 µM); MIC E.coli in the presence of 4% bovine serum albumin (E.coli ATCC 25922): >512 µg/mL; MIC E.coli (E.coli CAN-ICU 61714): 128 µg/mL (≈ 237 µM); MIC E.coli in the presence of 4% bovine serum albumin (E.coli CAN-ICU 61714): >512 µg/mL; MIC E.coli (E.coli CAN-ICU 63074): 128 µg/mL (≈ 237 µM); MIC E.coli in the presence of 4% bovine serum albumin (E.coli CAN-ICU 63074): >512 µg/mL; MIC E. faecium (E. faecium ATCC 27270): 64 µg/mL (≈ 118 µM); MIC E. faecium in the presence of 4% bovine serum albumin (E. faecium ATCC 27270): 512 µg/mL |
